Format in all cases: biochemical
Data set [1] deals with T1, Escherichia coli PenG amidase (Escherichia coli, UniProt P06875).
T1 construct: purchased Sigma
The data set can be described thus: Amoxycillin synthetic activity inhibition by PAA and PXA. The conditions noted are these: for relative activity, amoxycillin synthesis amount with the substrate alone set at 100%: 30 mM KPB pH 6.0, 30° C., 1 hour; for inhibition of amoxycillin synthesis (in words): summary of Table 1. Here is the method:
(§1) To 200 μl of a substrate solution prepared by dissolving 6-APA and HPGOMe-HCl in 30 mM KPB (pH 6.0) at the concentration of 0.5%, 10 μl of the enzyme solution obtained in (Examination Example 1) was added. PAA was added to be 0.3% and PXA was added to be 0.35%, and the mixture was subjected to reaction while shaking at 30° C. for 1 hour. Then, 1N HCl was added in 1/20 amount of the substrate to terminate the reaction. The generated amoxycillin was detected using HPLC. The result showing relative activity for the respective enzymes with the amoxycillin synthesis amount reacted by the substrate alone being set at 100% is shown in Table 1.

Data set [2] relates to Stenotrophomonas maltophilia KNK12A strain-derived β-lactam acylase. Described as above. To be noted: for relative activity, amoxycillin synthesis amount with the substrate alone set at 100%: 30 mM KPB pH 6.0, 30° C., 1 hour; for inhibition of amoxycillin synthesis (in words): summary of Table 1. Here is the method:
as §1

A short description of data set [3]: Comparison of amoxycillin synthesis activity. To be noted: 0.5% 6-APA and HPGOMe-HCl, pH 6.0, 30° C., 0-120 minutes; FIG. 3. Here is the method: Amoxycillin synthesis activities of the Stenotrophomonas maltophilia KNK12A strain-derived β-lactam acylase and the known Escherichia coli PenG amidase (Sigma) were compared. As an enzyme solution, the fraction obtained in (Example 8) (enzyme concentration: about 3.2 ng/10 μl) was used for the Stenotrophomonas maltophilia KNK12A strain-derived β-lactam acylase, and 100-fold diluted solution (10.2 munit/10 μl, enzyme concentration: about 3.5 ng/10 μl) was used for Escherichia coli PenG amidase.
To 200 μl of a substrate solution prepared by dissolving 6-APA and HPGOMe-HCl in 30 mM KPB (pH 6.0) at the concentration of 0.5%, 10 μl of the enzyme solution was added and the mixture was subjected to reaction while shaking at 30° C. After the lapse of 0, 5, 10, 15, 30, 45, 60, 75, 90, 105 and 120 minutes from the start of the reaction, 1N HCl was added in 1/20 amount of the substrate solution to terminate the reaction. The generated amoxycillin was detected using HPLC.

Data set [4] can be described thus: Decomposition activity of amoxycillin. The conditions noted are these: 0.5% amoxycillin, pH 6.0, 30° C., 1 hour; FIG. 4. The procedure: To 200 μl of a solution prepared by dissolving amoxycillin in 30 mM KPB (pH 6.0) at the concentration of 0.5%, 10 μl of the enzyme solution obtained in (Examination Example 1) was added. The mixture was subjected to reaction for 1 hour while shaking at 30° C., and 1N HCl was added in 1/20 amount of the substrate solution to terminate the reaction.
To 200 μl of a liquid prepared by dissolving amoxycillin in 30 mM KPB (pH 6.0) at the concentration of 0.5%, 10 μl of the enzyme solution obtained in (Examination Example 1) was added. The mixture was subjected to reaction while shaking at 30° C. for 1 hour, and then 1N HCl was added in 1/20 amount of the substrate solution to terminate the reaction. The remained amoxycillin was detected using HPLC.

Data set [5] is described as follows: Comparison of decomposition activity of HPGOMe. To be noted: 0.5% HPGOMe-HCl, pH 6.0, 30° C., 1 hour; FIG. 5. The procedure:
To 200 μl of a liquid prepared by dissolving HPGOMe-HCl in 30 mM KPB (pH 6.0) at the concentration of 0.5%, 10μ of the enzyme solution obtained in (Examination Example 1) was added, and the mixture was subjected to reaction while shaking at 30° C. for 1 hour. Then, 1N HCl was added in 1/20 amount of the substrate solution to terminate the reaction. The remained HPGOMe was detected using HPLC.

Data set [6] in a line: Capability comparison examination of a mutant acylase. To be noted: compared with unmodified acylase. Here is the method: A β-lactam acylase-producing strain pUCNTkmTn5-KNK-L/HB101 strain and 1 amino acid-substituted mutant β-lactam acylase-producing strain pUCNT-Tn5-MuKNK-L1/HB101 strain were inoculated in 10 ml of CM culture medium, and shaking culture was carried out at 37° C. overnight. Cells were recovered from 2 ml of the culture by centrifugation, and suspended in 30 mM KPB (pH 6.0). Then, 1 ml of a substrate (prepared by dissolving 0.5% HPGOMe-HCl and 0.5% 6-APA in 30 mM KPB and adjusted to pH 6.0) was mixed therewith, and the mixture was subjected to reaction at 30° C. After the lapse of 10, 20, 30, 60, 90 and 180 minutes from the start of the reaction, 1N HCl was added in 1/20 amount of the substrate solution to terminate the reaction. Then, the centrifuged supernatant was diluted to 25-fold with 30 mM KPB, and 10 μl thereof was analyzed by HPLC. The amoxycillin conversion efficiency comparison is shown in FIG. 6, and ester decomposition degree comparison of D-p-hydroxyphenylglycine methyl ester (HPGOMe) is shown in FIG. 7.

The values below come from patent publication US7195892B2, “Acylase gene” (Kaneka Corporation, priority 2002, dated 2007).

T1 sequence (P06875 290-846): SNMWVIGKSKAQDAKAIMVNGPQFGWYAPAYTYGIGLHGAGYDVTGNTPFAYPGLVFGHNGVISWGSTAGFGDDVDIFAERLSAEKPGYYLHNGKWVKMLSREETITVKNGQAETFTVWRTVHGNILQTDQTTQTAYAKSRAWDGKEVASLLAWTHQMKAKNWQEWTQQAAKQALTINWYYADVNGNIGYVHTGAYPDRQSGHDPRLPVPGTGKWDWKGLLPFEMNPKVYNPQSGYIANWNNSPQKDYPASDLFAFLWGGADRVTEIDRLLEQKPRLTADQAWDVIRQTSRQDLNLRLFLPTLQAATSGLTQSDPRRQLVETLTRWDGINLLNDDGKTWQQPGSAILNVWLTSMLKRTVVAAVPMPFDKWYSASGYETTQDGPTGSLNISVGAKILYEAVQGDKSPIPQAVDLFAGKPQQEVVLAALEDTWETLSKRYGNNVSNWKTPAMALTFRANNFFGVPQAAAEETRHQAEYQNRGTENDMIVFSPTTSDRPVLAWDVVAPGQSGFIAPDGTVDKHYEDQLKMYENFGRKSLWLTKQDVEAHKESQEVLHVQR
T1 sequence (P06875 27-235): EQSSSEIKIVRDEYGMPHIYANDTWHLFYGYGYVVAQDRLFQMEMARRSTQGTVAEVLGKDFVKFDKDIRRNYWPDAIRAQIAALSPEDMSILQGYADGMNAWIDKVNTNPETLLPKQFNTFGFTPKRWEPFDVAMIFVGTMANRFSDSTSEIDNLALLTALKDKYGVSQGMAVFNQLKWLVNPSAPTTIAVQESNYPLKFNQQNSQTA

In the case of `O=C(O)Cc1ccccc1` [PAA, Phenylacetic Acid], the “relative activity, amoxycillin synthesis amount with the substrate alone set at 100%” value is given as 0% in data set [1] (Substrate + 0.3% PAA) and 107% in data set [2] (Substrate + 0.3% PAA). The “inhibition of amoxycillin synthesis (in words)” value in data set [1] is “inhibited”; in data set [2], “not inhibited at all, or even in the case there is inhibition, it is slight”.
In the case of `O=C(O)COc1ccccc1` [PXA, Phenoxyacetic Acid], the “relative activity, amoxycillin synthesis amount with the substrate alone set at 100%” value turned out to be 0% in data set [1] (Substrate + 0.35% PXA) and 76% in data set [2] (Substrate + 0.35% PXA). For the same molecule, the “inhibition of amoxycillin synthesis (in words)” value in data set [1] is given as “inhibited”; in data set [2], “not inhibited at all, or even in the case there is inhibition, it is slight”.

B1: Stenotrophomonas maltophilia KNK12A strain-derived β-lactam acylase: β-lactam acylase of Stenotrophomonas maltophilia KNK12A, amino acid sequence SEQ ID NO:2, about 70 kDa (protein, listed as Stenotrophomonas maltophilia)
chain: MHVRAVAVAIALSLSSTVLAADTPPMTPDISGKPFIAPDVGRDYDKRVVMVPMRDGTRLYTVIVVPKGAHNAPILLTRTPYDAAGRASRSDSPRMRDLLPQGDEVFVDGGYIRVFQDIRGKYGSEGDYVMTRPLRGPLNNTKVDHSTDAWDTIDWLVKHVPESNGKVGMLGSSYEGFTVVMALTDPHPALKVAAPQSPMVDGWMGDDWLNYGAFRQVNFNYFAMQTEKRGKGTPLPSLGYDDYSTFLRIGSAGDYARFTGVDQLTWWKKLVQHPAYDGFWQGQALDAVMAKTPLKVPTMWLQGLWDQEDMWGANHAYQAMEGRDTGNTHNYLVMGPWRHSQVNYTGNELGALKFEGDTALQFRRDVLKPFFDQYLVDGAPKADTPPVLIYNTGENHWDRLQGWPRSCDKGCTAASKPLYLRAGGKLAFQAPAAGEGDFEEYVSDPAKPVPFVPRPVRFGDRDMWTTWLVKDQRFVDGRPDVLTFITEPLAEPLRIGGAPVVHLQASTSGTDSDWVVKLIDVYPDQEASTPEMGGYELPVSLAIFRGRYRESFSDPKPLAANQVLPYRFDLPNANHVFQKGHRVMVQVQSSLFPLYDRNPQTYVPNIYLAKPGDYQKATQRVWHSAAQASYVDLPVY
On to B1, for which the “amoxycillin synthesis conversion rate” value in data set [3] is listed as “very high conversion rate as compared with Escherichia coli PenG amidase”. In addition, the amoxycillin decomposition speed result in data set [4] is “slow”. For the same molecule, the “decomposition speed of HPGOMe” value in data set [5] is “faster than that of Escherichia coli PenG amidase”.

B2: mutant β-lactam acylase (protein, listed as Stenotrophomonas maltophilia)
chain: MHVRAVAVAIALSLSSTVLAADTPPMTPDISGKPFIAPDVGRDYDKRVVMVPMRDGTRLYTVIVVPKGAHNAPILLTRTPYDAAGRASRSDSPRMRDLLPQGDEVFVDGGYIRVFQDIRGKYGSEGDYVMTRPLRGPLNNTKVDHSTDAWDTIDWLVKHVPESNGKVGMLGSSYEGFTVVMALTDPHPALKVAAPQSPMVDGWVGDDWLNYGAFRQVNFNYFAMQTEKRGKGTPLPSLGYDDYSTFLRIGSAGDYARFTGVDQLTWWKKLVQHPAYDGFWQGQALDAVMAKTPLKVPTMWLQGLWDQEDMWGANHAYQAMEGRDTGNTHNYLVMGPWRHSQVNYTGNELGALKFEGDTALQFRRDVLKPFFDQYLVDGAPKADTPPVLIYNTGENHWDRLQGWPRSCDKGCTAASKPLYLRAGGKLAFQAPAAGEGDFEEYVSDPAKPVPFVPRPVRFGDRDMWTTWLVKDQRFVDGRPDVLTFITEPLAEPLRIGGAPVVHLQASTSGTDSDWVVKLIDVYPDQEASTPEMGGYELPVSLAIFRGRYRESFSDPKPLAANQVLPYRFDLPNANHVFQKGHRVMVQVQSSLFPLYDRNPQTYVPNIYLAKPGDYQKATQRVWHSAAQASYVDLPVY
Consider B2, for which the acylase activity result in data set [6] (FIG. 6) is reported as “enhanced”. For the same molecule, in data set [6] (FIG. 7), the “ester decomposition activity of the substrate HPGOMe” value is “reduced”.
